Literature values, collected in patent US6100258A, “Aromatic amine compounds that antagonize the pain enhancing effects of prostaglandins” (Zeneca Limited, priority 1995, dated 2000).

What was measured:
[1] = tested on: guinea pig ileum
[2] = tested on: dog fundus

CC(=O)NNC(=O)N1Cc2ccccc2Oc2ccc(Cl)cc21 [SC-19220]
block of the effect of PGE2 [1]: blocks the effect of PGE2
block of the effect of PGE2 [2]: blocks the effect of PGE2
